These compounds were tested on SNI mice (assay: Thermal hyperalgesia (Plantar Test Apparatus, paw withdrawal latency) in spared nerve injury mice). Conditions: 2.5 mg/kg.
Type: in vivo
Protocol: (§1) Peripheral neuropathic pain is produced by multiple etiological factors that initiate a number of diverse mechanisms at different sites and in different disease states. Spared nerve injury (SNI) consists of partial ligation and transaction of the sciatic nerve which evolves in neuropathic pain whose typical manifestations are represented by thermal hyperalgesia and tactile allodynia.
(§2) Chronic pain symptoms are measured through changes in thermoceptive responses (which is indicative of thermal hyperalgesia) using Plantar Test Apparatus (Ugo Basile, Varese, Italy) and in mechanical paw withdrawal threshold (which is indicative of mechanical allodynia) by a Dynamic Plantar Aesthesiometer (Ugo Basile, Varese, Italy). Nociceptive responses were measured before and after surgery in groups of mice differently treated (vehicle or drugs different combinations).
(§3) The cannabinoids tested were CBG, CBC, CBDV, and THCV. […] The cannabinoids were prepared from whole plant extracts of cannabis plants which had been purified. The cannabinoids were dissolved in ringer/0.5% dimethyl sulfoxide (DMSO), for intraperitoneal (i.p.) administration.
(§4) Male CD-1 mice (35-40 g) were housed, 3 per cage, under controlled illumination (12:12 h light:dark cycle; light on 06.00 h) and environmental conditions (room temperature 20-22° C., humidity 55-60%) for at least 1 week before the commencement of experiments. Mouse chow and tap water were available ad libitum. The experimental procedures were approved by the Ethic Committee of the Second University of Naples. Animal care was in compliance with the IASP and European Community (E.C. L358/1 18/12/86) guidelines on the use and protection of animals in experimental research. All efforts were made to minimize animal suffering and to reduce the number of animals used.
(§5) Behavioural testing was performed before surgery to establish a baseline for comparison with post-surgical values. Mononeuropathy was induced according to the method of Bourquin and Decosterd (2006).
(§6) Mice were anaesthetized with sodium pentobarbital (60 mg/kg i.p.). The right hindlimb was immobilized in a lateral position and slightly elevated. Incision was made at mid-thigh level using the femur as a landmark. The sciatic nerve was exposed at mid-thigh level distal to the trifurcation and freed of connective tissue; the three peripheral branches (sural, common peroneal, and tibial nerves) of the sciatic nerve were exposed without stretching nerve structures.
(§7) Both tibial and common peroneal nerves were ligated and transacted together. A micro-surgical forceps with curved tips was delicately placed below the tibial and common peroneal nerves to slide the thread (5.0 silk, Ethicon, Johnson, and Johnson Intl, Brussels, Belgium) around the nerves. A tight ligation of both nerves was performed. The sural nerve was carefully preserved by avoiding any nerve stretch or nerve contact with surgical tools. Muscle and skin were closed in two distinct layers with silk 5.0 sutures.
(§8) Intense, reproducible and long-lasting thermal hyperalgesia and mechanical allodynia-like behaviors are measurable in the non-injured sural nerve skin territory. The SNI model offers the advantage of a distinct anatomical distribution with an absence of co-mingling of injured and non-injured nerve fibers distal to the lesion such as the injured and non-injured nerves and territories can be readily identified and manipulated for further analysis (i.e. behavioral assessment).
(§9) The sham procedure consisted of the same surgery without ligation and transection of the nerves.
(§10) The groups of mice were divided as follows, each cannabinoid tested has its own group of mice:
(§11) The cannabinoids were dosed daily for 14 days. Doses for all cannabinoids tested were: 2.5 and 5.0 mg/Kg. Vehicle solution was 0.5% DMSO in ringer solution.
Thermal hyperalgesia was evaluated by using a Plantar Test Apparatus (Ugo Basile, Varese, Italy). […]
In the case of `CCCCCc1cc(O)c2c(c1)OC(C)(CCC=C(C)C)C=C2` (centres unmarked) [CBC, cannabichromene], the “overall efficacy, thermal withdrawal” value is reported as “relatively ineffective”.

Same assay, conditions: 5.0 mg/kg, day 3
`CCCCCc1cc(O)c2c(c1)OC(C)(CCC=C(C)C)C=C2` (centres unmarked) [CBC, cannabichromene] was tested, and the “THERMAL WITHDRAWAL LATENCY” value was “able to increase the amount of time before the animal withdrew its paw”.

Same assay, conditions: 2.5 vs 5 mg/kg
For `CCCCCc1cc(O)c2c(c1)OC(C)(CCC=C(C)C)C=C2` (centres unmarked) [CBC, cannabichromene], the “dose-dependence of effect on thermal withdrawal latency” value was “do not appear to be dose-dependent”.

Same assay, conditions: SNI mice, 2.5 mg/kg i.p. daily, DAY 3
`CCCCCc1cc(O)c2c(c1)OC(C)(CCC=C(C)C)C=C2` (centres unmarked) [CBC, cannabichromene] was tested, and the “THERMAL WITHDRAWAL LATENCY” value was 3.7 s.

Same assay, conditions: SNI mice, 2.5 mg/kg i.p. daily, DAY 7
In the case of `CCCCCc1cc(O)c2c(c1)OC(C)(CCC=C(C)C)C=C2` (centres unmarked) [CBC, cannabichromene], the “THERMAL WITHDRAWAL LATENCY” value is reported as 4.8 s.

Same assay, conditions: SNI mice, 2.5 mg/kg i.p. daily, DAY 14
`CCCCCc1cc(O)c2c(c1)OC(C)(CCC=C(C)C)C=C2` (centres unmarked) [CBC, cannabichromene] was tested, and the “THERMAL WITHDRAWAL LATENCY” value was 5.2 s.

Same assay, conditions: SNI mice, 5 mg/kg i.p. daily, DAY 3
In the case of `CCCCCc1cc(O)c2c(c1)OC(C)(CCC=C(C)C)C=C2` (centres unmarked) [CBC, cannabichromene], the “THERMAL WITHDRAWAL LATENCY” value is reported as 6.0 s.

Same assay, conditions: SNI mice, 5 mg/kg i.p. daily, DAY 7
`CCCCCc1cc(O)c2c(c1)OC(C)(CCC=C(C)C)C=C2` (centres unmarked) [CBC, cannabichromene] was tested, and the “THERMAL WITHDRAWAL LATENCY” value was 7.0 s.

Same assay, conditions: SNI mice, 5 mg/kg i.p. daily, DAY 14
In the case of `CCCCCc1cc(O)c2c(c1)OC(C)(CCC=C(C)C)C=C2` (centres unmarked) [CBC, cannabichromene], the “THERMAL WITHDRAWAL LATENCY” value is reported as 7.2 s.

These compounds were tested on SNI mice (assay: Mechanical allodynia (Dynamic Plantar Aesthesiometer, paw withdrawal threshold) in spared nerve injury mice). Conditions: 5.0 mg/kg, day 7 to day 14.
Type: in vivo
Protocol: as §1, §2, §3, §4, §5, §6, §7, §8, §9, §10, §11
Mechanical allodynia was measured by using Dynamic Plantar Anesthesiometer (Ugo Basile, Varese, Italy). […]
For `CCCCCc1cc(O)c2c(c1)OC(C)(CCC=C(C)C)C=C2` (centres unmarked) [CBC, cannabichromene], the “mechanical withdrawal, course over time” value was “large increase at day 7; however this latency decreased again at the 14 day time point”.

Same assay, conditions: SNI mice, 2.5 mg/kg i.p. daily, DAY 3
`CCCCCc1cc(O)c2c(c1)OC(C)(CCC=C(C)C)C=C2` (centres unmarked) [CBC, cannabichromene] was tested, and the “MECHANICAL WITHDRAWAL THRESHOLD” value was 2.4 g.

Same assay, conditions: SNI mice, 2.5 mg/kg i.p. daily, DAY 7
With `CCCCCc1cc(O)c2c(c1)OC(C)(CCC=C(C)C)C=C2` (centres unmarked) [CBC, cannabichromene] the “MECHANICAL WITHDRAWAL THRESHOLD” value was 4.5 g.

Same assay, conditions: SNI mice, 2.5 mg/kg i.p. daily, DAY 14
With `CCCCCc1cc(O)c2c(c1)OC(C)(CCC=C(C)C)C=C2` (centres unmarked) [CBC, cannabichromene] the “MECHANICAL WITHDRAWAL THRESHOLD” value was 5.0 g.

Same assay, conditions: SNI mice, 5 mg/kg i.p. daily, DAY 3
With `CCCCCc1cc(O)c2c(c1)OC(C)(CCC=C(C)C)C=C2` (centres unmarked) [CBC, cannabichromene] the “MECHANICAL WITHDRAWAL THRESHOLD” value was 5.1 g.

Same assay, conditions: SNI mice, 5 mg/kg i.p. daily, DAY 7
`CCCCCc1cc(O)c2c(c1)OC(C)(CCC=C(C)C)C=C2` (centres unmarked) [CBC, cannabichromene] was tested, and the “MECHANICAL WITHDRAWAL THRESHOLD” value was 9.7 g.

Same assay, conditions: SNI mice, 5 mg/kg i.p. daily, DAY 14
With `CCCCCc1cc(O)c2c(c1)OC(C)(CCC=C(C)C)C=C2` (centres unmarked) [CBC, cannabichromene] the “MECHANICAL WITHDRAWAL THRESHOLD” value was 5.2 g.

Same assay, conditions: both of the doses tested (2.5 and 5 mg/kg)
For `CCCCCc1cc(O)c2c(c1)OC(C)(CCC=C(C)C)C=C2` (centres unmarked) [CBC, cannabichromene], the “overall efficacy, mechanical withdrawal” value was “relatively ineffective”.
